“Also recorded” adds a separate entry of the source.
System: SNc dopaminergic neurons
Assay: Whole cell patch clamp recordings of pacemaking in dopaminergic neurons in brain slices
Format: cell-based, mouse

## COC(=O)C1=C(C)NC(C)=C(C(=O)OC(C)C)C1c1cccc2nonc12 (stereo not drawn) [isradipine, 3,5-pyridinedicarboxylic acid, 4-(4-benzofurazanyl)-1,4-dihydro-2,6-dimethyl-, methyl 1-methylethyl ester]
Adult SNc dopaminergic neuron, before, during and after application, FIG. 4
  effect of sustained blockade on pacemaking (altered pacemaking mechanism): altered pacemaking mechanism can be elicited; also recorded: restores pacemaking and dopaminergic neuron cell function through an altered pacemaking mechanism

## COCCOC(=O)C1=C(C)NC(C)=C(C(=O)OC(C)C)C1c1cccc([N+](=O)[O-])c1 (stereo not drawn) [nimodipine, isopropyl 2-methoxyethyl 1,4-dihydro-2,6-dimethyl-4-(m-nitrophenyl)-3,5-pyridinedicarboxylate]
Tissue slice from an adult, FIG. 1
  effect on autonomous pacemaking of dopaminergic neurons: inhibits autonomous pacemaking of dopaminergic neurons

## NC1=N[C@H](O)[C@H]2[C@H]3O[C@]4(O)O[C@@H]([C@@H](O)[C@@]2(N1)[C@@H]4O)[C@]3(O)CO [tetrodotoxin]
  effect of blockade of TTX sensitive sodium channels on spikes and oscillations: eliminates spikes but not the underlying oscillations that drive pacemaking

From patent publication US20210177819A1, “METHODS AND COMPOSITIONS FOR MODULATING CALCIUM CHANNELS” (Northwestern University, priority 2005, published 2021)
